Source: patent US10329270B2, “Heteroaryl compounds as BTK inhibitors and uses thereof” (Merck Patent GmbH, priority 2013, dated 2019)

Target: T1, full-length human BTK (Homo sapiens, UniProt Q06187)
T1 construct: 2.5× stocks of full-length human BTK (08-080); purchased CarnaBio USA, Inc., Natick, Mass; 08-080
Assay: Assay A: BTK IC50 Enzyme Assay (microfluidic off-chip mobility shift kinase assay)
Format: biochemical
Settings: full-length human BTK, kinKDR peptide substrate, incubated 90 min at 27 C; read-out: Assay A (Time Dependent BTK Enzyme Assay IC50)
Procedure, shortened: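 Off-chip microfluidic mobility shift assay with full-length human BTK; phosphorylated and unphosphorylated peptide substrate were separated by charge/mass on a LabChip 3000.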

T1 sequence (Q06187 whole entry): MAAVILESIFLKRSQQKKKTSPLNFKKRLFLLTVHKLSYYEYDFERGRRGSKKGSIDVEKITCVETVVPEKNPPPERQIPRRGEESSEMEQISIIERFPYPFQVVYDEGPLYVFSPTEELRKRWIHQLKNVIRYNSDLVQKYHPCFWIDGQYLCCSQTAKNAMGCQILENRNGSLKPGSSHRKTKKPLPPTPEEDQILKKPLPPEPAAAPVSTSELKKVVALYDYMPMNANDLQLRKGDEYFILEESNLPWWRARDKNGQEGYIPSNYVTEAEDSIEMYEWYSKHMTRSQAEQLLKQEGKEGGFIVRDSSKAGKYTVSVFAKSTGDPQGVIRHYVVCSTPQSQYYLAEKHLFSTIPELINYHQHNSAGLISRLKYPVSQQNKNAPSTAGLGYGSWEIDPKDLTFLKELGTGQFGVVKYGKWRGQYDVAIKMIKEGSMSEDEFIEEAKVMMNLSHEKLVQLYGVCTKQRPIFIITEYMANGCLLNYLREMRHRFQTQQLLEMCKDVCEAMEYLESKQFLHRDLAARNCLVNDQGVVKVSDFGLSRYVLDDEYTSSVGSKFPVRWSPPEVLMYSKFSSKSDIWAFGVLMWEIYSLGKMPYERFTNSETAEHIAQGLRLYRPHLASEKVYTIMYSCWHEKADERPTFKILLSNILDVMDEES

Structure (SMILES)	IC50
C=CC(=O)NC1CCN(c2cnc(Oc3ccc(Oc4ccccc4)cc3)c(C(N)=O)c2)C1 (stereo not drawn) [Compound 196, 5-(3-Acryloylamino-pyrrolidin-1-yl)-2-(4-phenoxy-phenoxy)-nicotinamide]	100 to 1000 nM
C=CC(=O)N[C@H]1CCN(c2ncnc(C(N)=O)c2Cl)C1 [Compound 172, 6-((S)-3-Acryloylamino-pyrrolidin-1-yl)-5-chloro-pyrimidine-4-carboxylic acid amide]	> 5000 nM
C=CC(=O)NC1CCCN(c2cnc(Oc3ccc(Oc4ccccc4)cc3)c(C(N)=O)c2)C1 (stereo not drawn) [Compound 198]	100 to 1000 nM
C=CC(=O)N[C@H]1CCN(c2ccc(C(N)=O)c(Nc3ccc(CCN4CCC(F)(F)C4)cc3)n2)C1 [Compound 24, 6-((S)-3-Acryloylamino-pyrrolidin-1-yl)-2-{4-[2-(3,3-difluoro-pyrrolidin-1-yl)-ethyl]-phenylamino}-nicotinamide]	< 100 nM
C=CC(=O)N[C@H]1CCN(c2ccc(C(N)=O)c(Nc3ccc(C(=O)N(C)C)cc3)n2)C1 [Compound 26, 6-((S)-3-Acryloylamino-pyrrolidin-1-yl)-2-(4-dimethylcarbamoyl-phenylamino)-nicotinamide]	< 100 nM
C=CC(=O)N1CCC(c2ccc(C(N)=O)c(Oc3ccc(Oc4ccccc4)cc3)n2)CC1 [Compound 64, 6-(1-acryloylpiperidin-4-yl)-2-(4-phenoxyphenoxy)nicotinamide]	< 100 nM
C=CC(=O)N1CCC(Nc2ncc(C(N)=O)c(Oc3ccc(Oc4ccccc4)cc3)n2)CC12CCC2 (stereo not drawn) [Compound 175, 2-(5-Acryloyl-5-aza-spiro[3.5]non-8-ylamino)-4-(4-phenoxy-phenoxy)-pyrimidine-5-carboxylic acid amide]	100 to 1000 nM
C=CC(=O)N1CC=C(c2cncc(C(N)=O)c2Nc2ccc(C(=O)N3CCCCC3)cc2)CC1 [Compound 169, 1′-Acryloyl-4-[4-(piperidine-1-carbonyl)-phenylamino]-1′,2′,3′,6′-tetrahydro-[3,4′]bipyridinyl-5-carboxylic acid amide]	1000 to 5000 nM
CN(C)C/C=C/C(=O)N[C@H]1C[C@@H](Nc2ncc(C(N)=O)c(N)n2)C1 [Compound 162, 4-Amino-2-[3-(4-dimethylamino-but-2-enoylamino)-cyclobutylamino]-pyrimidine-5-carboxylic acid amide]	> 5000 nM
C=CC(=O)N[C@H]1CCN(c2ccc(C(N)=O)c(Nc3cncc(C)c3)n2)C1 [Compound 55, 6-((S)-3-Acryloylamino-pyrrolidin-1-yl)-2-(5-methyl-pyridin-3-ylamino)-nicotinamide]	< 100 nM
C=CC(=O)N1CCC2(CCN(c3cnc(Oc4ccc(Oc5ccccc5)cc4)c(C(N)=O)c3)C2)C1 (stereo not drawn) [Compound 224, 5-(7-Acryloyl-2,7-diaza-spiro[4.4]non-2-yl)-2-(4-phenoxy-phenoxy)-nicotinamide]	100 to 1000 nM
C/C=C/C(=O)N1CC2CN(c3cnc(Oc4ccc(Oc5cccc(F)c5)cc4)c(C(N)=O)c3)CC2C1 (stereo not drawn) [Compound 235, 5-[5-((E)-But-2-enoyl)-hexahydro-pyrrolo[3,4-c]pyrrol-2-yl]-2-[4-(3-fluoro-phenoxy)-phenoxy]-nicotinamide]	> 5000 nM
C=CC(=O)N[C@H]1CCN(c2ncc(C#N)c(Nc3ccc(C(=O)NC(C)(C)C)cc3)n2)C1 [Compound 178]	< 100 nM
C=CC(=O)N(C)[C@H]1CCN(c2ccc(C(N)=O)c(Oc3ccc(Oc4ccccc4)cc3)n2)C1 [Compound 107, 6-[(S)-3-(Acryloyl-methyl-amino)-pyrrolidin-1-yl]-2-(4-phenoxy-phenoxy)-nicotinamide]	< 100 nM
NC(=O)c1ccc(C2CCN(C(=O)/C=C/CN3CCN(CCNC(=O)CCCC[C@@H]4SC[C@@H]5NC(=O)N[C@@H]54)CC3)CC2)nc1Oc1ccc(Oc2ccccc2)cc1 [Compound 86, 6-(1-((E)-4-(4-(2-(5-((3aS,4S,6aR)-2-oxohexahydro-1H-thieno[3,4-d]imidazol-4-yl)pentanamido)ethyl)piperazin-1-yl)but-2-enoyl)piperidin-4-yl)-2-(4-phenoxyphenoxy)nicotinamide]	100 to 1000 nM
C=CC(=O)N1CCC(Nc2ccc(C(N)=O)c(Nc3cccc(C)c3)n2)C1 (stereo not drawn) [Compound 50, 6-(1-Acryloyl-pyrrolidin-3-ylamino)-2-m-tolylamino-nicotinamide]	< 100 nM
C=CC(=O)N1CCC(c2cc(Oc3ccc(OCc4ccccc4)cc3)c(C(N)=O)cn2)C1 (stereo not drawn) [Compound 111, 6-(1-acryloylpyrrolidin-3-yl)-4-(4-(benzyloxy)phenoxy)nicotinamide]	< 100 nM
C=CC(=O)N1CCC(c2cnc(Oc3ccc(Oc4ccccc4)cc3)c(C(N)=O)c2)CC1 [Compound 127, 1′-Acryloyl-6-(4-phenoxy-phenoxy)-1′,2′,3′,4′,5′,6′-hexahydro-[3,4′]bipyridinyl-5-carboxylic acid amide]	100 to 1000 nM
C=CC(=O)N1C2CCC1CN(c1ncc(C(N)=O)c(Oc3ccc(Oc4ccccc4)cc3)n1)C2 [Compound 149, 2-(8-Acryloyl-3,8-diaza-bicyclo[3.2.1]oct-3-yl)-4-(4-phenoxy-phenoxy)-pyrimidine-5-carboxylic acid amide]	< 100 nM
C=CC(=O)N[C@H]1CCN(c2ccc(C(N)=O)c(Nc3cccc(C)c3)n2)C1 [Compound 57, 6-((S)-3-Acryloylamino-pyrrolidin-1-yl)-2-m-tolylamino-nicotinamide]	< 100 nM

Structure (SMILES)	IC50
C=CC(=O)N1CCCC(c2cnc(Oc3ccc(Oc4ccccc4)cc3)c(C(N)=O)c2)C1 (stereo not drawn) [Compound 126, 1′-Acryloyl-6-(4-phenoxy-phenoxy)-1′,2′,3′,4′,5′,6′-hexahydro-[3,3′]bipyridinyl-5-carboxylic acid amide]	< 100 nM
CN(C)C/C=C/C(=O)N[C@H]1CCN(c2ncc(C(N)=O)c(N)n2)C1 [Compound 145, 4-Amino-2-[(S)-3-((E)-4-dimethylamino-but-2-enoylamino)-pyrrolidin-1-yl]-pyrimidine-5-carboxylic acid amide]	1000 to 5000 nM
C=CC(=O)N1CCC2(CCN(c3cnc(Oc4ccc(Oc5cccc(F)c5)cc4)c(C(N)=O)c3)C2)C1 (stereo not drawn) [Compound 233, 5-(7-acryloyl-2,7-diazaspiro[4.4]nonan-2-yl)-2-(4-(3-fluorophenoxy)phenoxy)nicotinamide]	100 to 1000 nM
C=CC(=O)N[C@H]1CCN(c2nc(Nc3ccc(N4CC(C)OC(C)C4)c(F)c3)c(C(N)=O)cc2F)C1 (stereo partly drawn) [Compound 181, 6-((S)-3-Acryloylamino-pyrrolidin-1-yl)-2-[4-(2,6-dimethyl-morpholin-4-yl)-3-fluoro-phenylamino]-5-fluoro-nicotinamide]	< 100 nM
C=CC(=O)N[C@H]1CCN(c2ccc(C(N)=O)c(Oc3cccnc3)n2)C1 [Compound 92, 6-((S)-3-Acryloylamino-pyrrolidin-1-yl)-2-(pyridin-3-yloxy)-nicotinamide]	100 to 1000 nM
C=CC(=O)N1CCC(c2cnc(C(N)=O)nc2)CC1 [Compound 153]	> 5000 nM
C=CC(=O)N1C[C@@H]2C[C@H]1CN2c1ccc(C(N)=O)c(Nc2ccc(C)nc2)n1 [Compound 8]	< 100 nM
C=CC(=O)N1CCC(Nc2cnc(Oc3ccc(Oc4cccc(F)c4)cc3)c(C(N)=O)c2)CC1 [Compound 228, 5-(1-Acryloyl-piperidin-4-ylamino)-2-[4-(3-fluoro-phenoxy)-phenoxy]-nicotinamide]	< 100 nM
C=CC(=O)N1CCC[C@@H](c2cnc(Oc3ccc(Oc4ccccc4)cc3)c(C(N)=O)c2)C1 [Compound 125, (S)-5-(1-acryloylpiperidin-3-yl)-2-(4-phenoxyphenoxy)nicotinamide]	< 100 nM
C=CC(=O)N1CCn2ncc(-c3cnc(C(N)=O)nc3)c2C1 [Compound 154]	> 5000 nM
C=CC(=O)N[C@H]1CCN(c2ccc(C(N)=O)c(NC3CCN(C)CC3)n2)C1 [Compound 62, 6-((S)-3-Acryloylamino-pyrrolidin-1-yl)-2-(1-methyl-piperidin-4-ylamino)-nicotinamide]	> 5000 nM
N#CN1CCC[C@@H](c2cnc(Oc3ccc(Oc4ccc(F)cc4F)cc3)c(C(N)=O)c2)C1 [Compound 249, 5-[(3S)-1-cyanopiperidin-3-yl]-2-[4-(2,4-difluorophenoxy)phenoxy]pyridine-3-carboxamide]	> 5000 nM
C=CC(=O)N1CCC(c2ccc(C(N)=O)c(Nc3ccc(N4C[C@@H](C)O[C@@H](C)C4)nc3)n2)CC1 [Compound 32, 1′-Acryloyl-6-[6-((2R,6S)-2,6-dimethyl-morpholin-4-yl)-pyridin-3-ylamino]-1′,2′,3′,4′,5′,6′-hexahydro-[2,4′]bipyridinyl-5-carboxylic acid amide]	< 100 nM
C=CC(=O)N[C@H]1CCN(c2cc(Oc3ccc(Oc4ccccc4)cc3)c(C(N)=O)cn2)C1 [Compound 109, 6-((S)-3-Acryloylamino-pyrrolidin-1-yl)-4-(4-phenoxy-phenoxy)-nicotinamide]	< 100 nM
C/C=C/C(=O)N1CCC(Nc2cnc(Oc3ccc(Oc4ccccc4)cc3)c(C(N)=O)c2)CC1 [Compound 234, 5-[1-((E)-But-2-enoyl)-piperidin-4-ylamino]-2-(4-phenoxy-phenoxy)-nicotinamide]	1000 to 5000 nM
C=CC(=O)N[C@H]1CCN(c2ccc(C(N)=O)c(NC3CCOCC3)n2)C1 [Compound 165, 6-((S)-3-Acryloylamino-pyrrolidin-1-yl)-2-(tetrahydro-pyran-4-ylamino)-nicotinamide]	> 5000 nM
C=CC(=O)N1CCC[C@H](c2cnc(Oc3ccc(Oc4ccccc4)cc3)c(C(N)=O)c2)C1 [Compound 124, (R)-5-(1-acryloylpiperidin-3-yl)-2-(4-phenoxyphenoxy)nicotinamide]	< 100 nM
C=CC(=O)N[C@@H]1CCCN(c2nc(Nc3ccc(N4CCN(C)CC4)cc3)c(C(N)=O)cc2F)C1 [Compound 226, (R)-3-Acryloylamino-3′-fluoro-6′-[4-(4-methyl-piperazin-1-yl)-phenylamino]-3,4,5,6-tetrahydro-2H-[1,2′]bipyridinyl-5′-carboxylic acid amide]	< 100 nM
C=CC(=O)N1CCn2ncc(-c3cnc(C(N)=O)cn3)c2C1 [Compound 137]	> 5000 nM
